Reference: publication PMC12049818, “Identification of NUV-244 as a PNPLA3 I148M degrading small molecule” (iScience, 2025)

Experiments:
[1] = molecular target: T1, PNPLA3 I148M-tagRFP (Homo sapiens, UniProt Q9NST1, I148M); experiment: Western blot anti-PNPLA3, Huh7 PNPLA3 I148M-tagRFP; format: cell-based; settings: 5µM, 24h
T1 construct: host or cells: Huh7
T1 sequence (Q9NST1 1-481 I148M): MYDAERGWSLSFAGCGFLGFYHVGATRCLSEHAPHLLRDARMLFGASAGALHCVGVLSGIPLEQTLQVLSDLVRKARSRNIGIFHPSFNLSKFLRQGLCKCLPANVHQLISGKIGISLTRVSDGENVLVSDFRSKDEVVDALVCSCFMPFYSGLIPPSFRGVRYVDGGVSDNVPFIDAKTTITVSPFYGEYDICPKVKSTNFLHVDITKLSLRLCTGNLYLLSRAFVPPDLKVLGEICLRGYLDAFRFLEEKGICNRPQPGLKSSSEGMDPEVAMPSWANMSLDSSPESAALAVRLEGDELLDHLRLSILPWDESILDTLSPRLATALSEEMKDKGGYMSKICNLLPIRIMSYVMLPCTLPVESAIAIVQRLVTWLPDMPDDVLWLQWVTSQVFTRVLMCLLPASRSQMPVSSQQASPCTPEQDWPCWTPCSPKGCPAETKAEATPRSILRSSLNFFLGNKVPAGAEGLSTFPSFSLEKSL
Procedure: For SDS-PAGE and subsequent western blotting cells were harvested in 1x lysis buffer (50 mM Tris-Cl, pH 7.5, 150 mM NaCl, 1 mM EDTA, 1% Triton X-100) supplemented with complete mini protease inhibitor cocktail (Roche). Total protein concentration of samples was determined with a Bicinchoninic Acid (BCA) protein assay. Cell lysates were boiled for 10 min at 99°C with 1x NuPAGE LDS Sample Buffer and loaded onto a 4-12% Tris-Glycine SDS-PAGE gel. For immunoblotting proteins were transferred to a nitrocellulose membrane (0.2 μm pore size, Schleicher & Schuell) and blocked with Intercept (PBS) Blocking buffer (Licor), incubated with primary antibodies anti-PNPLA3 (1:500, C-8 Santa Cruz, SC-390252), anti-PNPLA3 (1:1000, Millipore, MABS2174) and anti-HSP90 (1:1000, Cell Signaling, #4877), and subsequently incubated with secondary antibodies IRDye 680 or IRDye 800 (1:2000; LI-COR Biosciences). Infrared signal was detected using the Odyssey imaging system (Licor). […]
a. Huh7, PNPLA3 I148M b. Huh7, PNPLA3 I148M-tagRFP […]
control NUV-244 control NUV-244
Supplemental Fig. 9: Western Blot NUV-244 a. […] PNPLA3 bands at 53kDa (unmodified in a.) or 80 kDa (PNPLA3 I148M-tagRFP) were quantified (signal above local background, normalized to loading control using LICOR Odyssey CLx / Image Studio) on two independent Western Blots and percent of intensity compared to DMSO controls calculated (Mean +/ - Stdev). […]

[2] = molecular target: T2, PNPLA3 I148M (Homo sapiens, UniProt Q9NST1, I148M); experiment: Huh7 untagged PNPLA3 I148M immunofluorescence on lipid droplets; format: cell-based; set-up: host or cells: Huh7; settings: anti-PNPLA3 IF; representative curve, Figure 3E
T2 sequence (Q9NST1 1-481 I148M): T1 sequence (Q9NST1 1-481 I148M)
Procedure: Even though C-terminal tagging is reported not to interfere with PNPLA3 localization,[20] we established an assay to exclude the possibility that C-terminal tagging of PNPLA3 with tagRFP could alter PNPLA3 response to NUV-244 on lipid droplets. For this we generated Huh7 cell lines that express untagged variants of PNPLA3 I148M or PNPLA3 WT and visualized PNPLA3 on lipid droplets by immunofluorescence (Figures 3C, 3D, and S3A).
Cells were fixed with 4% paraformaldehyde for 15 minutes at room temperature. Cells were blocked with 0.2 M glycine, 0.1 mg/mL saponin, and 30 mg/mL bovine serum albumin (BSA) (all Sigma Aldrich) in PBS for 1 hour. Cells were washed 1x with washing buffer (0,1 mg/ml saponin + 1 mg/ml Bovine serum albumin) using a Blue Washer (Blue Cat Bio). Mouse anti-human ADPN (PNPLA3, C-8, #sc-390252, Santa Cruz) and rabbit anti-human PNPLA2 (Sigma Aldrich, #HPA055173-25UL) primary antibodies and appropriate secondary antibodies conjugated with Alexa-Fluor 647 (Jackson ImmunoResearch) were used. […]
Images were acquired by an Opera Phenix confocal spinning disc microscope system (Revvity, Waltham, MA, USA) with a 20x or 40x water objective at 405 nm (Hoechst), 488 nm (BODIPY) and 647 nm. Quantification was carried out with the Harmony (Revvity, Waltham, MA, USA) or MetaXpress software (Molecular Devices). […]

[3] = system: Huh7 cells expressing unmodified PNPLA3 I148M; experiment: Incucyte growth curves, Huh7 expressing PNPLA3 I148M; format: cell-based, human; settings: 1μM or 5μM
Procedure: (§1) Huh7, Huh7 PNPLA3 I148M, Huh7 PNPLA3, Hep3b and LX-2 cells were seeded at a concentration of 1000 cells/well in 60 μl of growth medium on 384-well microtiter plates (Revvity, Waltham, MA, USA, PhenoPlate 384-well microplate, #6057308) and stored in a 37°C incubator with 5% CO2 and 95% humidity overnight. Next day cells were treated with DMSO as control (1% final concentration) or compound (1μM or 5μM final concentration) and cell density was recorded in the Incucyte® life cell imager (Sartorius, Göttingen, Germany) every 4 hours over a period of 5 days. Growth curves were generated by monitoring confluence over time. Proliferative capacity of PNPLA3 I148M-expressing cells was compared to control cells, and the restoration of proliferative fitness was analyzed.

[4] = system: Huh7 cells; experiment: Incucyte growth curves, Huh7; format: cell-based, human; settings: 1μM or 5μM; compared to DMSO
Procedure: as §1

PNPLA3 band intensity printed on the blot shown (DMSO 100%) ([1]; single blot shown in Fig. S9b): 72%
PNPLA3 band, percent of intensity compared to DMSO controls ([1]; two independent Western Blots, Mean +/- Stdev): 46+/-4%
EC50 [2]: 153 nM
Compound: Cc1cccc(Cc2nc(C)c(C(=O)Nc3cc(O)ccc3Cl)s2)c1 [NUV-244]
proliferative fitness of Huh7 cells expressing PNPLA3 I148M [3]: restored
effect on proliferative capacity, Huh7 [4]: no effects
